Laboratory results reported in patent US11332459B2 (TEIJIN PHARMA LIMITED, priority 2017, dated 2022).
Where a name gives a salt, the structure may show the parent alone.

Biological target: T1, human TRPC6 (Homo sapiens, UniProt Q9Y210)
T1 construct: expressed in transfected cells
T1 sequence (Q9Y210 1-931): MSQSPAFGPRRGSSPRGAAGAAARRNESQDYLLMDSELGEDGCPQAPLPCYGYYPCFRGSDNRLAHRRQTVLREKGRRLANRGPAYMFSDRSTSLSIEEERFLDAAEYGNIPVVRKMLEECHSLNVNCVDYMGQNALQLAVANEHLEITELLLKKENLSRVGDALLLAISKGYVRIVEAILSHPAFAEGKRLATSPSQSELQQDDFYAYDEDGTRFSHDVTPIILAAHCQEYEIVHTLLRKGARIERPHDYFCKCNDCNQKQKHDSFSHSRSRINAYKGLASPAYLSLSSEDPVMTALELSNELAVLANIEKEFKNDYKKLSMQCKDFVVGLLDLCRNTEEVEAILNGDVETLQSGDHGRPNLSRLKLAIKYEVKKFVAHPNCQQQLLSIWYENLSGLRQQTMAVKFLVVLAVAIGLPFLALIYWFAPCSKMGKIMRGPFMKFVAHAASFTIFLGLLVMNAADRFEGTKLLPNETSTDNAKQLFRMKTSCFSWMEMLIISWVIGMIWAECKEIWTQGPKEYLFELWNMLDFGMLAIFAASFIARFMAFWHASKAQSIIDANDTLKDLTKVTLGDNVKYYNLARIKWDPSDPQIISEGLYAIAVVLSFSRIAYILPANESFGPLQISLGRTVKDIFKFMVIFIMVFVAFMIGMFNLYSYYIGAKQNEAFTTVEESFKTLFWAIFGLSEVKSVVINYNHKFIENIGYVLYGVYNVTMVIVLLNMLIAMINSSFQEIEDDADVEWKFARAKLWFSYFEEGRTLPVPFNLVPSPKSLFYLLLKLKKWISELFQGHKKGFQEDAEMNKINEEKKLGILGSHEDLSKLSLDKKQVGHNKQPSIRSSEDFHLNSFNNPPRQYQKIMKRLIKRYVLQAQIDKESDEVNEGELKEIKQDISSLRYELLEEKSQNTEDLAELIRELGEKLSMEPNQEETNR
Assay: TRPC6 calcium flux assay (FLIPR, OAG-stimulated calcium influx)
Assay type: cell-based
Settings: HEK293 cells stably transfected with human TRPC6, read-out: hTRPC6 Potency
Procedure, shortened: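 HEK293 cells stably expressing human TRPC6, loaded with calcium dye 90–120 min at RT, then given compound for 25 min before OAG (50 uM final, 0.5% DMSO) in HEPES buffer pH 7.2 with 2 mM CaCl2. Background-subtracted FLIPR peak over 180 s normalized to OAG vs buffer; IC50 from dose plot.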

| Structure (SMILES) | IC50 [nM] |
| --- | --- |
| N#Cc1ccc(Cn2c(N3CCC[C@@H](N)C3)nc3ccccc32)c(Cl)c1 [Example 394, (R)-4-((2-(3-aminopiperidin-1-yl)-1H-benzo[d]imidazol-1-yl)methyl)-3-chlorobenzonitrile] | 732 |
| COCCN(C(=O)Cn1c(N2CC[C@@H](F)[C@H](N)C2)nc2cc(F)c(F)cc21)C1CCS(=O)(=O)C1 (stereo partly drawn) [Example 538, 2-(2-((3R,4R)-3-amino-4-fluoropiperidin-1-yl)-5,6-difluoro-1H-benzo[d]imidazol-1-yl)-N-(1,1-dioxidotetrahydrothiophen-3-yl)-N-(2-methoxyethyl)acetamide] | > 3750 |
| CN[C@@H]1CN(c2nc3cc(F)cc(F)c3n2[C@@H](C)c2ccc(C#N)cn2)CC[C@H]1F (single isomer, unassigned) [Example 441] | 2.23 |
| COCC1CN(C(=O)Cn2c(N3CC[C@@H](F)[C@H](N)C3)nc3cc(F)c(F)cc32)CCO1 (mixture of isomers) [Example 647, 2-(2-((3R,4R)-3-amino-4-fluoropiperidin-1-yl)-5,6-difluoro-1H-benzo[d]imidazol-1-yl)-1-(2-(methoxymethyl)morpholino) ethanone] | 3170 |
| N#Cc1ccc(Cn2c(N3CCC[C@H](N)C3)nc3ccccc32)cn1 [Example 210, (S)-5-((2-(3-aminopiperidin-1-yl)-1H-benzo[d]imidazol-1-yl)methyl)picolinonitrile] | 69.1 |
| CS(=O)(=O)c1ccc(Cn2c(N3CC[C@@H](F)[C@H](N)C3)nc3cc(F)cc(F)c32)nc1 [Example 595, (3R,4R)-1-(5,7-difluoro-1-((5-(methylsulfonyl)pyridin-2-yl)methyl)-1H-benzo[d]imidazol-2-yl)-4-fluoropiperidin-3-amine] | > 3750 |
| CC(C)(C)OC1CN(C(=O)Cn2c(N3CC[C@@H](F)[C@H](N)C3)nc3cc(F)c(F)cc32)C1 [Example 427, 2-(2-((3R,4R)-3-amino-4-fluoropiperidin-1-yl)-5,6-difluoro-1H-benzo[d]imidazol-1-yl)-1-(3-(tert-butoxy)azetidin-1-yl)ethan-1-one] | > 1750 |
| N#Cc1ccc(Cn2c(N3CC[C@@H](F)[C@H](N)C3)nc3cc(C#N)ccc32)cc1 [Example 159, 2-((3R,4R)-3-amino-4-fluoro-1-piperidinyl)-1-(4-cyanobenzyl)-1H-benzimidazole-5-carbonitrile] | 16.4 |
| CN(CC(F)(F)F)C(=O)Cn1c(N2CC[C@H](F)[C@H](N)C2)nc2ccc(F)cc21 (single isomer, unassigned) [Example 466] | 103 |
| CCN(CCOC)C(=O)Cn1c(N2CC[C@@H](F)[C@H](N)C2)nc2ccc(F)cc21 [Example 671, 2-(2-((3R,4R)-3-amino-4-fluoropiperidin-1-yl)-6-fluoro-1H-benzo[d]imidazol-1-yl)-N-ethyl-N-(2-methoxyethyl)acetamide] | 1430 |
| N#Cc1ccc2c(c1)CC[C@H]2n1c(N2CCC[C@H](N)C2)nc2ccccc21 [Example 423, (R)-1-(2-((S)-3-aminopiperidin-1-yl)-1H-benzo[d]imidazol-1-yl)-2,3-dihydro-1H-indene-5-carbonitrile] | 151 |
| CN(C)C(=O)Cn1c(N2CC[C@@H](F)[C@H](N)C2)nc2ccc(OC(F)(F)F)cc21 [Example 468, 2-(2-((3R,4R)-3-amino-4-fluoropiperidin-1-yl)-6-(trifluoromethoxy)-1H-benzo[d]imidazol-1-yl)-N,N-dimethylacetamide] | 178 |
| N#Cc1ccc(Cn2c(N3CC[C@@H](F)[C@H](N)C3)nc3cc(Cl)cnc32)nc1 [Example 92, 6-((2-((3R,4R)-3-amino-4-fluoropiperidin-1-yl)-6-chloro-3H-imidazo[4,5-b]pyridin-3-yl)methyl)nicotinonitrile] | 43.8 |
| C[C@H]1CCCN1C(=O)Cn1c(N2CC[C@@H](F)[C@H](N)C2)nc2ccc(F)cc21 [Example 682, 2-(2-((3R,4R)-3-amino-4-fluoropiperidin-1-yl)-6-fluoro-1H-benzo[d]imidazol-1-yl)-1-((S)-2-methylpyrrolidin-1-yl)ethan-1-one] | 259 |
| C[C@@H](c1ccc(Cl)cn1)n1c(N2CC[C@@H](F)[C@H](N)C2)nc2cc(F)c(F)cc21 [Example 218, (3R,4R)-1-(1-((S)-1-(5-chloropyridin-2-yl)ethyl)-5,6-difluoro-1H-benzo[d]imidazol-2-yl)-4-fluoropiperidin-3-amine hydrochloride] | 0.82 |
| N[C@@H]1CN(c2nc3cc(F)c(F)cc3n2Cc2cc(-c3cccc(Cl)c3)no2)CC[C@H]1F [Example 263, (3R,4R)-1-(1-((3-(3-chlorophenyl)-1,2-oxazol-5-yl)methyl)-5,6-difluoro-1H-benzimidazol-2-yl)-4-fluoro-3-piperidinamine] | 765 |
| CN[C@@H]1CN(c2nc3ccc(F)cc3n2CC(=O)N(C)CC(F)(F)F)CC[C@H]1F [Example 469, 2-(6-fluoro-2-((3R,4R)-4-fluoro-3-(methylamino)piperidin-1-yl)-1H-benzo[d]imidazol-1-yl)-N-methyl-N-(2,2,2-trifluoroethyl)acetamide] | 190 |
| N[C@H]1CCCN(c2nc3ccccc3n2Cc2ccc(Cl)cc2)C1 [Example 316, (S)-1-(1-(4-chlorobenzyl)-1H-benzo[d]imidazol-2-yl)piperidin-3-amine hydrochloride] | 2.04 |
| CN[C@@H]1CN(c2nc3ccc(F)cc3n2Cc2ccc(C#N)cn2)CCC1(F)F [Example 432, (R)-6-((2-(4,4-difluoro-3-(methylamino)piperidin-1-yl)-6-fluoro-1H-benzo[d]imidazol-1-yl)methyl)nicotinonitrile] | 7.77 |
| N#Cc1ccc(Cn2c(N3CCC[C@]4(CCN4)C3)nc3ccccc32)nc1 [Example 28, (S)-6-((2-(1,6-diazaspiro[3.5]nonan-6-yl)-1H-benzo[d]imidazol-1-yl)methyl)nicotinonitrile] | > 3750 |
| CC(c1ccc(C#N)cc1)n1c(N2CCC[C@H](N)C2)nc2ccccc21 (mixture of isomers) [Example 399, 4-(1-(2-((S)-3-aminopiperidin-1-yl)-1H-benzo[d]imidazol-1-yl)ethyl)benzonitrile] | 20.5 |
| N#Cc1ccc(Cn2c(N3CC[C@H](O)[C@@H](N)C3)nc3ccccc32)nc1 [Example 96, 6-((2-((3S,4S)-3-amino-4-hydroxypiperidin-1-yl)-1H-benzo[d]imidazol-1-yl)methyl)nicotinonitrile] | 134 |
| CN[C@@H]1CN(c2nc3ccc(C#N)cc3n2Cc2ncc(Cl)cn2)CC[C@H]1F [Example 283, 1-((5-chloro-2-pyrimidinyl)methyl)-2-((3R,4R)-4-fluoro-3-(methylamino)-1-piperidinyl)-1H-benzimidazole-6-carbonitrile] | 23.8 |
| N[C@@H]1CN(c2nc3c(F)cc(F)cc3n2Cc2ncc(Cl)cn2)CC[C@H]1F [Example 258, (3R,4R)-1-(1-((5-chloro-2-pyrimidinyl)methyl)-4,6-difluoro-1H-benzimidazol-2-yl)-4-fluoro-3-piperidinamine] | 0.288 |
| N#Cc1ccc(Cn2c(N3CC[C@@H](F)[C@H](N)C3)nc3c(Cl)cc(Cl)cc32)nc1 [Example 58, 6-((2-((3R,4R)-3-amino-4-fluoropiperidin-1-yl)-4,6-dichloro-1H-benzo[d]imidazol-1-yl)methyl)nicotinonitrile] | 0.469 |
| N#Cc1ccc(Cn2c(N3CCC[C@](N)(C(N)=O)C3)nc3ccccc32)nc1 [Example 103, (R)-3-amino-1-(1-((5-cyanopyridin-2-yl)methyl)-1H-benzo[d]imidazol-2-yl)piperidine-3-carboxamide] | > 3750 |
| N#Cc1ccc(Cn2c(N3CCC[C@@](N)(CO)C3)nc3ccccc32)nc1 [Example 104, (S)-6-((2-(3-amino-3-(hydroxymethyl)piperidin-1-yl)-1H-benzo[d]imidazol-1-yl)methyl)nicotinonitrile] | 61.8 |
| Cc1nnc(Cn2c(N3CCC(F)(F)[C@H](N)C3)nc3cc(F)ccc32)s1 [Example 597, (R)-4,4-difluoro-1-(5-fluoro-1-((5-methyl-1,3,4-thiadiazol-2-yl)methyl)-1H-benzo[d]imidazol-2-yl)piperidin-3-amine] | > 3750 |
| C[C@@H]1COCCN1C(=O)Cn1c(N2CC[C@@H](F)[C@H](N)C2)nc2ccc(F)cc21 [Example 681, 2-(2-((3R,4R)-3-amino-4-fluoropiperidin-1-yl)-6-fluoro-1H-benzo[d]imidazol-1-yl)-1-((R)-3-methylmorpholino)ethan-1-one] | 168 |
